Experimental data published in BigSolDB 2.1.

C=CC(=O)NC(C)(C)CC(C)=O
Details	solubility (mole fraction)
in 2-butanone, 272.05 K	0.229
in 2-butanone, 278.25 K	0.276
in 2-butanone, 283.25 K	0.321
in 2-butanone, 288.45 K	0.373
in 2-butanone, 293.35 K	0.424
in 2-butanone, 298.15 K	0.484
in 2-butanone, 303.25 K	0.551
in 2-butanone, 308.15 K	0.623
in 2-butanone, 313.15 K	0.704
in 2-butanone, 318.15 K	0.79
in 2-butanone, 323.15 K	0.88
in 2-pentanone, 272.05 K	0.2
in 2-pentanone, 278.25 K	0.245
in 2-pentanone, 283.25 K	0.285
in 2-pentanone, 288.45 K	0.334
in 2-pentanone, 293.35 K	0.385
in 2-pentanone, 298.15 K	0.442
in 2-pentanone, 303.25 K	0.509
in 2-pentanone, 308.15 K	0.581
in 2-pentanone, 313.15 K	0.658
in 2-pentanone, 318.15 K	0.747
in 2-pentanone, 323.15 K	0.844
in acetone, 272.05 K	0.207
in acetone, 278.25 K	0.252
in acetone, 283.25 K	0.294
in acetone, 288.45 K	0.342
in acetone, 293.35 K	0.394
in acetone, 298.15 K	0.45
in acetone, 303.25 K	0.515
in acetone, 308.15 K	0.584
in acetone, 313.15 K	0.66
in acetone, 318.15 K	0.746
in acetone, 323.15 K	0.839
in ethanol, 272.15 K	0.186
in ethanol, 278.25 K	0.231
in ethanol, 283.15 K	0.271
in ethanol, 288.15 K	0.318
in ethanol, 293.35 K	0.374
in ethanol, 297.65 K	0.427
in ethanol, 303.15 K	0.5
in ethanol, 308.15 K	0.576
in ethanol, 313.65 K	0.671
in ethanol, 318.85 K	0.767
in ethanol, 323.65 K	0.867
in ethyl acetate, 272.05 K	0.166
in ethyl acetate, 278.25 K	0.208
in ethyl acetate, 283.25 K	0.249
in ethyl acetate, 288.45 K	0.299
in ethyl acetate, 293.35 K	0.351
in ethyl acetate, 298.15 K	0.411
in ethyl acetate, 303.25 K	0.481
in ethyl acetate, 308.15 K	0.558
in ethyl acetate, 313.15 K	0.645
in ethyl acetate, 318.15 K	0.745
in ethyl acetate, 323.15 K	0.85
in ethyl formate, 272.05 K	0.186
in ethyl formate, 278.25 K	0.23
in ethyl formate, 283.25 K	0.271
in ethyl formate, 288.45 K	0.321
in ethyl formate, 293.35 K	0.376
in ethyl formate, 298.15 K	0.435
in ethyl formate, 303.25 K	0.506
in ethyl formate, 308.15 K	0.575
in ethyl formate, 313.15 K	0.659
in ethyl formate, 318.15 K	0.754
in ethyl formate, 323.15 K	0.859
in isobutanol, 272.05 K	0.212
in isobutanol, 278.25 K	0.258
in isobutanol, 283.25 K	0.301
in isobutanol, 288.45 K	0.351
in isobutanol, 293.35 K	0.403
in isobutanol, 298.15 K	0.462
in isobutanol, 303.25 K	0.529
in isobutanol, 308.15 K	0.601
in isobutanol, 313.15 K	0.68
in isobutanol, 318.15 K	0.767
in isobutanol, 323.15 K	0.866
in isopentanol, 272.15 K	0.154
in isopentanol, 278.25 K	0.197
in isopentanol, 283.15 K	0.24
in isopentanol, 288.15 K	0.29
in isopentanol, 293.35 K	0.352
in isopentanol, 297.65 K	0.411
in isopentanol, 303.15 K	0.495
in isopentanol, 308.15 K	0.585
in isopentanol, 313.65 K	0.7
in isopentanol, 318.85 K	0.82
in isopentanol, 323.65 K	0.955
in isopropanol, 272.15 K	0.155
in isopropanol, 278.25 K	0.197
in isopropanol, 283.15 K	0.238
in isopropanol, 288.15 K	0.286
in isopropanol, 293.35 K	0.343
in isopropanol, 297.65 K	0.398
in isopropanol, 303.15 K	0.479
in isopropanol, 308.15 K	0.562
in isopropanol, 313.65 K	0.667
in isopropanol, 318.85 K	0.777
in isopropanol, 323.65 K	0.898
in methanol, 272.15 K	0.241
in methanol, 278.25 K	0.287
in methanol, 283.15 K	0.327
in methanol, 288.15 K	0.371
in methanol, 293.35 K	0.422
in methanol, 297.65 K	0.468
in methanol, 303.15 K	0.531
in methanol, 308.15 K	0.594
in methanol, 313.65 K	0.667
in methanol, 318.85 K	0.746
in methanol, 323.65 K	0.823
in methyl acetate, 272.05 K	0.206
in methyl acetate, 278.25 K	0.253
in methyl acetate, 283.25 K	0.294
in methyl acetate, 288.45 K	0.343
in methyl acetate, 293.35 K	0.399
in methyl acetate, 298.15 K	0.455
in methyl acetate, 303.25 K	0.526
in methyl acetate, 308.15 K	0.6
in methyl acetate, 313.15 K	0.68
in methyl acetate, 318.15 K	0.769
in methyl acetate, 323.15 K	0.869
in n-butanol, 272.15 K	0.169
in n-butanol, 278.25 K	0.213
in n-butanol, 283.15 K	0.253
in n-butanol, 288.15 K	0.303
in n-butanol, 293.35 K	0.362
in n-butanol, 297.65 K	0.417
in n-butanol, 303.15 K	0.496
in n-butanol, 308.15 K	0.579
in n-butanol, 313.65 K	0.681
in n-butanol, 318.85 K	0.793
in n-butanol, 323.65 K	0.908
in n-hexanol, 272.15 K	0.151
in n-hexanol, 278.25 K	0.194
in n-hexanol, 283.15 K	0.236
in n-hexanol, 288.15 K	0.286
in n-hexanol, 293.35 K	0.346
in n-hexanol, 297.65 K	0.406
in n-hexanol, 303.15 K	0.491
in n-hexanol, 308.15 K	0.581
in n-hexanol, 313.65 K	0.696
in n-hexanol, 318.85 K	0.82
in n-hexanol, 323.65 K	0.953
in n-pentanol, 272.15 K	0.148
in n-pentanol, 278.25 K	0.189
in n-pentanol, 283.15 K	0.229
in n-pentanol, 288.15 K	0.276
in n-pentanol, 293.35 K	0.336
in n-pentanol, 297.65 K	0.391
in n-pentanol, 303.15 K	0.469
in n-pentanol, 308.15 K	0.553
in n-pentanol, 313.65 K	0.66
in n-pentanol, 318.85 K	0.775
in n-pentanol, 323.65 K	0.896
in n-propanol, 272.15 K	0.18
in n-propanol, 278.25 K	0.226
in n-propanol, 283.15 K	0.269
in n-propanol, 288.15 K	0.32
in n-propanol, 293.35 K	0.381
in n-propanol, 297.65 K	0.437
in n-propanol, 303.15 K	0.52
in n-propanol, 308.15 K	0.605
in n-propanol, 313.65 K	0.71
in n-propanol, 318.85 K	0.819
in n-propanol, 323.65 K	0.937
